Where no end group is shown, it is not given here. The star is where a group is joined. Biotin = O=C1N[C@H]2[C@H](CS[C@H]2CCCCC(=O)*)N1
Columns and labels:
[1] = target: streptavidin (Streptomyces avidinii, UniProt P22629); experiment: Cyclic voltammetry of electrochemically-labeled peptide binding to a streptavidin coated electrode; details: electrochemically-labeled peptide plus mediator; described in present tense
Experimental: (§1) Protein crosslinking to the prepared electrode was then performed as follows. A 50 μL aliquot of a 5 mM solution of 1-(3-dimethylaminopropyl)-3-ethylcarbodiimide was placed on one side of the electrode and dried at room temperature. […] of a 4 mg/mL solution of a fusion protein in phosphate buffered saline (PBS)/0.1% Tween 20 was placed on the surface of the dried electrode previously treated with carbodiimide and incubated at 4° C. overnight to allow crosslinking to proceed. After this incubation, electrodes were washed once with a solution of 100 mM Tris-HCl (pH8.0)/100 mM NaCl for 5 min. and kept in PBS at 4° C. until used.
(§2) Cyclic voltammograms were collected using an EG&G PAR 273A potentiostat/galvanostat with a single compartment voltammetric cell equipped with a modified tin-doped indium oxide (ITO) working electrode (area=0.32 cm^2), platinum (Pt)-wire counter electrode and silver/silver chloride (Ag/AgCl) reference electrode (see Johnston et al, 1994, Inorg. Chem. 33: 6388-6390). An example of such a voltammogram is shown in FIG. 7 and was generated under the following conditions. A sample containing 50 mM Ru(NH3)6^3+ and 20 mM Ru(NH3)5^3+-labeled peptide dissolved in buffered aqueous solutions containing 50 mM sodium phosphate buffer (pH 6.8)/700 mM NaCl (having a total sodium ion concentration of 780 mM) was scanned at a rate of 15 mV/s. After scans with the electrochemically labeled peptide, the electrode was rinsed with the same 50 mM sodium phosphate buffer solution, and then with 50 mM Ru(NH3)6^3+ or an unlabeled peptide solution containing 50 mM Ru(NH3)6^3+. Cyclic voltammograms were obtained with 50 mM Ru(NH3)6^3+ after washing. […] A freshly prepared electrode was used for each experiment and a background scan of buffer alone was collected for each electrode and subtracted from subsequent scans.
Electrodes are prepared by coating with the GST-Src SH3 fusion protein described above or with streptavidin using the procedures described in Example 2. […]

[2] = target: T1, GST-Src SH3 fusion protein (Homo sapiens, UniProt P12931); experiment: Cyclic voltammetry of electrochemically-labeled peptide binding to a GST-Src SH3 coated electrode; details: for specific cyclic voltammetry signal at GST-Src SH3 electrode: electrochemically-labeled peptide plus mediator, described in present tense
T1 construct: made in house
Experimental: Tin-doped indium oxide electrodes were purchased (Delta Technologies) as 2 cm^2 square glass slides and prepared for use as follows. The electrode was cleaned by sonication treatment in a laboratory sonicator by sequential treatment in Alkonox, neat isopropyl alcohol, distilled and deionized water (three times), and finally the desired buffer; each sonication treatment having been performed for 10 min. The cleaned electrodes were then immersed in a 5 mM solution of 1,12-dodecadicarboxylic acid and incubated at room temperature for 48-72 hours, followed by rinsing the electrodes with hexane (Analytical grade).
as §1, §2
The electrochemical analysis apparatus and methods of the invention were used to detect and analyze the specific binding interaction between the Src SH3 domain and a specific binding SH3 peptide as follows. […]

[3] = target: MDM2 (Homo sapiens, UniProt Q00987); experiment: Cyclic voltammetry of electrochemically-labeled peptide binding to an MDM2 coated electrode; details: electrochemically-labeled peptide plus mediator; described in present tense
Sequence of MDM2 (Q00987 whole entry, species assumed): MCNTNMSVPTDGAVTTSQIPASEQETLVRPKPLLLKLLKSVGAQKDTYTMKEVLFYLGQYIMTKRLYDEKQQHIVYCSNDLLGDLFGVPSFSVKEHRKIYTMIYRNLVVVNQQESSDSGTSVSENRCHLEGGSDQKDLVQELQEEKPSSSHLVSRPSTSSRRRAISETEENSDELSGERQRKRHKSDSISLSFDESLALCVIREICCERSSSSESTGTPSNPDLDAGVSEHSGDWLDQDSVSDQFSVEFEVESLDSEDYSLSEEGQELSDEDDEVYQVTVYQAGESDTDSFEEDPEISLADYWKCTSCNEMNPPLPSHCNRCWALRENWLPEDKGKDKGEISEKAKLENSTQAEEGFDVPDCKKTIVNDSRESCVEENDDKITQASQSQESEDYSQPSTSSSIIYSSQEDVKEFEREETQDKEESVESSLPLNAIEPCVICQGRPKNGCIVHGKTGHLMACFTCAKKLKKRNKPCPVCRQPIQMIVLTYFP
Experimental: as §1
Cyclic voltammograms were collected using an EG&G PAR 273A potentiostat/galvanostat with a single compartment voltammetric cell equipped with a modified tin-doped indium oxide (ITO) working electrode (area=0.32 cm^2), platinum (Pt)-wire counter electrode and silver/silver chloride (Ag/AgCl) reference electrode (see Johnston et al, 1994, Inorg. Chem. 33: 6388-6390). An example of such a voltammogram is shown in FIG. 7 and was generated under the following conditions. A sample containing 50 mM Ru(NH3)6^3+ and 20 mM Ru(NH3)5^3+-labeled peptide dissolved in buffered aqueous solutions containing 50 mM sodium phosphate buffer (pH 6.8)/700 mM NaCl (having a total sodium ion concentration of 780 mM) was scanned at a rate of 15 mV/s. […]

[4] = target: T2, src SH3 domain (Homo sapiens, UniProt P12931); experiment: Chronoamperometry of SA/B-HRP conjugated surrogate ligand binding to a src SH3 hydrogel electrode; details: 100 mV
T2 construct: The src SH3 domain was immobilized in a hydrogel as described above in Section A
Experimental: The electrochemical analytic methods and apparati of the invention are used to detect protein:peptide interactions in a complex mixture. A variety of different target molecules and purchased from Polysciences (Warrington, Pa.). The redox polymer poly(1-vinylimidazole), modified with Os bipyridine redox centers (PVI-Os) was synthesized as described by Ohara et al. (1993, Anal. Chem. 65: 3512-3517). Specifically, hydrogels were prepared by mixing together 5 μL of each of the following solutions: a solution of a first member of a biological binding pair, typically comprising a receptor protein or fragment at a concentration of 4-6 mg/mL protein; 10 mg/mL PVI-Os, and 2.5 mg/mL PEGDGE. A 1 μL aliquot of the mixture was then spread on the surface of the glassy carbon electrodes. The hydrogel coated electrodes were cured overnight at room temperature prior to use.
The src SH3 domain was immobilized in a hydrogel as described above in Section A. This electrode was then used for electrochemical detection of surrogate ligand binding using a surrogate ligand prepared as follows.
A complex of streptavidin (SA) (Sigma Chemical Co., St. Louis, Mo.), biotinylated horseradish peroxidase (B-HRP) (Sigma) and biotinylated src SH3 surrogate ligand (His-Gly-Ser-Gly-Ser-Phe-Ser-His-Pro-Gln-Asn-Thr; SEQ ID No. 2) was prepared as follows. […]

[5] = system: Tyrosine aminoacyl tRNA synthetase (tyrRS); experiment: Chronoamperometry of SA/B-HRP conjugated surrogate ligand binding to, and inhibitor displacement from, a tyrRS hydrogel electrode

Sequence of streptavidin (P22629 25-183): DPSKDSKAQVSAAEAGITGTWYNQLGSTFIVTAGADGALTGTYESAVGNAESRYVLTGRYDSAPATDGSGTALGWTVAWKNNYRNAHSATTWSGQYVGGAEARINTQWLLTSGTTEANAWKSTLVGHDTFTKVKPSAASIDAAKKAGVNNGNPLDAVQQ

| Substance | specific cyclic voltammetry signal at streptavidin electrode [1] | specific cyclic voltammetry signal at GST-Src SH3 electrode [2] | further results |
| --- | --- | --- | --- |
| Biotin-HHSGSGSQTFSDLWKL [p53 peptide] | No specific interaction is detected | No specific interaction is detected | specific cyclic voltammetry signal at MDM2 electrode [3]: Specific signals are detected |
| Gly-His-Gly-Ser-Gly-Arg-Ala-Leu-Pro-Pro-Leu-Pro-Arg-Tyr-NH2 (GHGSGRALPPLPRY-NH2) [NPDF-1] | no specific signal is detected | Specific signals are detected | integrated cyclic voltammetry signal, mediator background subtracted ([2]; GST-Src SH3 coated electrode compared with GST alone, Ru-labeled peptide, hexaamineruthenium(III) mediator, 2 hours incubation): much higher signal |
| HGSGSFSHPQNT [src SH3 surrogate ligand] | – | – | time at which current reaches plateau ([4]; 100 μM H2O2, ligand added at t=600 sec (FIG. 8)): 1500 to 2000 s; current upon addition of SA/B-HRP conjugated surrogate ligand ([4]; 100 μM H2O2, ligand added at t=600 sec to 1 μg/mL SA (FIG. 8)): an increase in current was detected |
| HGSGSFSHPQNT [streptavidin binding peptide] | Specific signals are detected | no specific signal is detected | – |
| LYSWPDEQYERPSGSGK [tyrRS surrogate ligand] | – | – | binding rate constant (first order) for the tyrRS-surrogate ligand binding reaction ([5]; from the single-exponential current rise of FIG. 9): 0.0012 s⁻¹; current upon addition of SA/B-HRP conjugated surrogate ligand ([5]; tyrRS hydrogel electrode, conditions as for src SH3 (FIG. 9)): current was detected |
